From PubChem BioAssay AID330 (DTP/NCI, 2004)
“And” between values parts separate entries of the source, which are not always exact repeats. Equal values may be shown once. Inconclusive results and toxic doses are left out.

System: P388 leukemia ip, CD2F1 mice, survival T/C
Experiment: NCI In Vivo Anticancer Drug Screen. Data for tumor model P388 Leukemia (intraperitoneal) in CD2F1 (CDF1) mice
Settings: endpoint: median survival time, higher = longer survival
Summary of the method: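 Mice carrying the transplanted tumor received test compound or vehicle. Survival was recorded in each group, and the value is the treated-group measurement divided by that of the vehicle-treated control group.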

[1] = dose: 60.0 mg/kg/injection, schedule: Q01DX005 (ip), vehicle: Klucel (hydroxypropylcellulose) (HPC)
[2] = dose: 120.0 mg/kg/injection, schedule: Q01DX005 (ip), vehicle: Klucel (hydroxypropylcellulose) (HPC)
[3] = dose: 60.0 mg/kg/injection, schedule: Q01DX005 (ip), vehicle: saline with Tween-80
[4] = dose: 120.0 mg/kg/injection, schedule: Q01DX005 (ip), vehicle: saline with Tween-80
[5] = dose: 50.0 mg/kg/injection, schedule: Q01DX005 (ip), vehicle: Klucel (hydroxypropylcellulose) (HPC)
[6] = dose: 100.0 mg/kg/injection, schedule: Q01DX005 (ip), vehicle: Klucel (hydroxypropylcellulose) (HPC)
[7] = dose: 200.0 mg/kg/injection, schedule: Q01DX005 (ip), vehicle: Klucel (hydroxypropylcellulose) (HPC)
[8] = dose: 50.0 mg/kg/injection, schedule: Q01DX009 (ip), vehicle: saline with Tween-80
[9] = dose: 100.0 mg/kg/injection, schedule: Q01DX009 (ip), vehicle: saline with Tween-80
[10] = dose: 50.0 mg/kg/injection, schedule: Q01DX005 (ip), vehicle: saline with Tween-80
[11] = dose: 100.0 mg/kg/injection, schedule: Q01DX005 (ip), vehicle: saline with Tween-80
[12] = dose: 200.0 mg/kg/injection, schedule: Q01DX005 (ip), vehicle: saline with Tween-80
[13] = dose: 100.0 mg/kg/injection, schedule: Q04DX003 (ip), vehicle: Klucel (hydroxypropylcellulose) (HPC)
[14] = dose: 200.0 mg/kg/injection, schedule: Q04DX003 (ip), vehicle: Klucel (hydroxypropylcellulose) (HPC)
[15] = dose: 240.0 mg/kg/injection, schedule: Q01DX005 (ip), vehicle: saline with Tween-80
[16] = dose: 12.5 mg/kg/injection, schedule: Q01DX009 (ip), vehicle: saline
[17] = dose: 25.0 mg/kg/injection, schedule: Q01DX009 (ip), vehicle: saline
[18] = dose: 50.0 mg/kg/injection, schedule: Q01DX009 (ip), vehicle: saline
[19] = dose: 400.0 mg/kg/injection, schedule: Q04DX003 (ip), vehicle: Klucel (hydroxypropylcellulose) (HPC)

`C=C1C2CCC3C4(C)CCCC(C)(C(=O)O)C4CCC3(C2)C1O` (stereo unspecified) was tested, and the T/C (dose: 15.0 mg/kg/injection, schedule: Q01DX005 (ip), vehicle: Klucel (hydroxypropylcellulose) (HPC)) was 100 % of control, the T/C (dose: 30.0 mg/kg/injection, schedule: Q01DX005 (ip), vehicle: Klucel (hydroxypropylcellulose) (HPC)) was 100 % of control and the T/C [1] was 99 % of control. For the same compound, the T/C [2] was 100 % of control.
In the case of `Cc1ccc(C(=O)Nc2c(C)cccc2C)cc1`, the T/C [3] is reported as 98 % of control and the T/C [4] is reported as 92 % of control.
In the case of `C=C(C)c1nc(N)nc(N2CCCCC2)n1`, the T/C [5] is reported as 98 % of control, the T/C [6] is reported as 102 % of control and the T/C [7] is reported as 117 % of control.
`O=C(Nc1cnns1)Oc1ccccc1` was tested, and the T/C (dose: 12.5 mg/kg/injection, schedule: Q01DX009 (ip), vehicle: other) was 117 % of control, the T/C (dose: 25.0 mg/kg/injection, schedule: Q01DX009 (ip), vehicle: other) was 92 % of control and the T/C (dose: 50.0 mg/kg/injection, schedule: Q01DX009 (ip), vehicle: other) was 93 % of control. For the same compound, the T/C (dose: 100.0 mg/kg/injection, schedule: Q01DX009 (ip), vehicle: other) was 92 % of control and the T/C (dose: 200.0 mg/kg/injection, schedule: Q01DX009 (ip), vehicle: other) was 97 % of control.
In the case of `O=C(O)c1ccccc1Nc1cccc([N+](=O)[O-])c1`, the T/C (dose: 25.0 mg/kg/injection, schedule: Q04DX003 (ip), vehicle: saline) is reported as 99 % of control, the T/C (dose: 50.0 mg/kg/injection, schedule: Q04DX003 (ip), vehicle: saline) is reported as 114 % of control and the T/C (dose: 100.0 mg/kg/injection, schedule: Q04DX003 (ip), vehicle: saline) is reported as 114 % of control. For the same compound, the T/C (dose: 200.0 mg/kg/injection, schedule: Q04DX003 (ip), vehicle: saline) was 112 % of control.
With `Cc1c2[nH]c(C(=O)O)cc(=O)c2cc2c(=O)cc(C(=O)O)[nH]c12` the T/C (dose: 25.0 mg/kg/injection, schedule: Q01DX009 (ip), vehicle: saline with Tween-80) was 100 % of control, the T/C [8] was 99 % of control and the T/C [9] was 94 % of control.
For `CC1=N/C(=C\c2ccccc2)C(=O)N1c1ccccc1`, the T/C [6] was 98 % of control, the T/C [7] was 104 % of control and the T/C (dose: 400.0 mg/kg/injection, schedule: Q01DX005 (ip), vehicle: Klucel (hydroxypropylcellulose) (HPC)) was 105 % of control.
For `COc1cc2c(cc1C(C)c1cc(C(C)(C)C)c(O)c(C(C)(C)C)c1)OCO2` (stereo unspecified), the T/C [10] was 104 % of control, the T/C [11] was 100 % of control and the T/C [12] was 94 % of control.
`NC(=S)N/N=C\C=N\Nc1ccccc1` was tested, and the T/C [13] was 100 % of control and the T/C [14] was 100 % of control.
For `COCC/C=C\CN(C(C)C)C(C)C`, the T/C [8] was 99 % of control and the T/C [9] was 101 % of control.
In the case of `CC1CCCC(C)N1C(=O)c1ccccc1` (stereo unspecified), the T/C [3] is reported as 98 % of control, the T/C [4] is reported as 97 % of control and the T/C [15] is reported as 96 % of control.
In the case of `COc1ccc2c(c1O)-c1cc(O)cc3c1C(C2)N(C(=O)CN(CCCl)CCCl)CC3` (stereo unspecified), the T/C (dose: 12.5 mg/kg/injection, schedule: Q04DX003 (ip), vehicle: distilled water + Tween-80) is reported as 158 % of control, the T/C (dose: 12.5 mg/kg/injection, schedule: Q04DX003 (ip), vehicle: water) is reported as 158 % of control and the T/C (dose: 25.0 mg/kg/injection, schedule: Q04DX003 (ip), vehicle: distilled water + Tween-80) is reported as 114 % of control. For the same compound, the T/C (dose: 25.0 mg/kg/injection, schedule: Q04DX003 (ip), vehicle: water) was 116 % of control and the T/C (dose: 50.0 mg/kg/injection, schedule: Q04DX003 (ip), vehicle: water) was 96 % of control.
For `N#CCCn1ccc2ccccc21`, the T/C (dose: 100.0 mg/kg/injection, schedule: Q04DX003 (ip), vehicle: other) was 113 % of control, the T/C (dose: 200.0 mg/kg/injection, schedule: Q04DX003 (ip), vehicle: other) was 100 % of control and the T/C (dose: 400.0 mg/kg/injection, schedule: Q04DX003 (ip), vehicle: other) was 90 % of control.
In the case of `CCC12C=CCN3CC[C@@]4(c5cc([C@@]6(C(=O)OC)CC7CN(CCc8c6[nH]c6ccccc86)C[C@](O)(CC)C7)c(OC)cc5N(C)[C@H]4[C@]4(OCOC4=O)[C@@H]1O)C32` (stereo partly specified), the T/C (dose: 0.5 mg/kg/injection, schedule: Q01DX005 (ip), vehicle: saline) is reported as 102 % of control, the T/C (dose: 1.0 mg/kg/injection, schedule: Q01DX005 (ip), vehicle: saline) is reported as 91 % of control and the T/C (dose: 2.0 mg/kg/injection, schedule: Q01DX005 (ip), vehicle: saline) is reported as 92 % of control.
For `CC/C(C)=N/NC(=S)NC`, the T/C (dose: 6.25 mg/kg/injection, schedule: Q01DX009 (ip), vehicle: saline) was 98 % of control, the T/C [16] was 98 % of control and the T/C [17] was 101 % of control.
With `C=C(Cl)C(=NC(C)(C)C)Nc1c(Cl)cccc1Cl` the T/C [5] was 98 % of control and 95 % of control, the T/C [6] was 100 % of control and the T/C [7] was 100 % of control and 90 % of control.
`CNC(=O)OCc1c(C)sc(-c2ccccc2)c1COC(=O)NC` was tested, and the T/C (dose: 12.5 mg/kg/injection, schedule: Q01DX005 (ip), vehicle: distilled water + Tween-80) was 93 % of control, the T/C (dose: 25.0 mg/kg/injection, schedule: Q01DX005 (ip), vehicle: distilled water + Tween-80) was 95 % of control and the T/C (dose: 50.0 mg/kg/injection, schedule: Q01DX005 (ip), vehicle: distilled water + Tween-80) was 98 % of control. The T/C (dose: 100.0 mg/kg/injection, schedule: Q01DX005 (ip), vehicle: distilled water + Tween-80) was 86 % of control.
In the case of `CCC(=O)NC(Cc1ccccc1F)C(=O)O` (stereo unspecified), the T/C [16] is reported as 101 % of control, the T/C [17] is reported as 88 % of control and the T/C [18] is reported as 91 % of control and 93 % of control. The T/C (dose: 200.0 mg/kg/injection, schedule: Q01DX009 (ip), vehicle: saline) was 95 % of control.
`N#Cc1ccc(OC(=O)Nc2ccc(Cl)c(Cl)c2)cc1` was tested, and the T/C [1] was 118 % of control, the T/C [2] was 107 % of control and the T/C (dose: 240.0 mg/kg/injection, schedule: Q01DX005 (ip), vehicle: Klucel (hydroxypropylcellulose) (HPC)) was 115 % of control.
`CCCN(CCC)CCCCO` was tested, and the T/C (dose: 50.0 mg/kg/injection, schedule: Q04DX003 (ip), vehicle: saline with Tween-80) was 195 % of control, the T/C (dose: 100.0 mg/kg/injection, schedule: Q04DX003 (ip), vehicle: saline with Tween-80) was 100 % of control and the T/C (dose: 200.0 mg/kg/injection, schedule: Q04DX003 (ip), vehicle: saline with Tween-80) was 100 % of control.
With `CN1CCN(C(=O)CCSc2nc(-c3ccccc3)c(-c3ccccc3)o2)CC1` the T/C [18] was 110 % of control and the T/C (dose: 100.0 mg/kg/injection, schedule: Q01DX009 (ip), vehicle: saline) was 110 % of control.
In the case of `Cc1nn(-c2ccccc2)c(N)c1C#N`, the T/C (dose: 50.0 mg/kg/injection, schedule: Q04DX003 (ip), vehicle: Klucel (hydroxypropylcellulose) (HPC)) is reported as 104 % of control, the T/C [13] is reported as 107 % of control and the T/C [14] is reported as 106 % of control. The T/C [19] was 104 % of control.
With `Cc1nc2ccccc2nc1N1C(=O)c2ccccc2C1=O` the T/C [3] was 97 % of control, the T/C [4] was 99 % of control and the T/C [15] was 95 % of control.
For `C=C1C(=O)OC2CC3=CCC(OC3=O)/C(C)=C\CC12` (stereo unspecified), the T/C (dose: 21.5 mg/kg/injection, schedule: Q01DX005 (ip), vehicle: Klucel (hydroxypropylcellulose) (HPC)) was 118 % of control, the T/C (dose: 43.0 mg/kg/injection, schedule: Q01DX005 (ip), vehicle: Klucel (hydroxypropylcellulose) (HPC)) was 116 % of control and the T/C (dose: 86.0 mg/kg/injection, schedule: Q01DX005 (ip), vehicle: Klucel (hydroxypropylcellulose) (HPC)) was 108 % of control.
With `CCCCCCC1(/C=C\c2ccccc2)OCCO1` the T/C [8] was 102 % of control, the T/C [9] was 110 % of control and the T/C (dose: 200.0 mg/kg/injection, schedule: Q01DX009 (ip), vehicle: saline with Tween-80) was 101 % of control.
For `Cn1cnc2cc(N3CCCCC3)c(N)cc2c1=O`, the T/C [13] was 107 % of control, the T/C [14] was 99 % of control and the T/C [19] was 102 % of control.
`CCN(CC)CCNc1cccc2c(SC)ccnc12` was tested, and the T/C [10] was 101 % of control, the T/C [11] was 104 % of control and the T/C [12] was 101 % of control.
